Reference: patent publication US7368443B2, “2,6-disubstituted piperidines and piperazine compounds” (University of Kentucky Research Foundation, priority 1999, dated 2008)
Where two headings read alike, the source gives them in different places.

Key:
α4β2* nicotinic receptor = α4β2* nicotinic receptor (Rattus norvegicus, UniProt P09483+P12390); assay: High affinity [3H]nicotine binding assay; parameters: The pellet containing the striatal membranes was resuspended; from tissue; host or cells: rat striatal membranes
α7* nicotinic receptor = target: T1, α7* nicotinic receptor (Rattus norvegicus, UniProt Q05941); assay: [3H]Methyllycaconitine ([3H]MLA) binding assay
T1 construct: Whole rat brain (minus cortex, striatum and cerebellum) was homogenized; from tissue; host or cells: rat whole brain membranes (minus cortex, striatum and cerebellum)

[1] = system: methamphetamine-evoked endogenous DA release from striatal slices; assay: Methamphetamine-evoked endogenous DA overflow from superfused striatal slices; type: cell-based; details: read-out: Inhibition of Methamphetamine Evoked DA Overflow IC50 (Mean)
[2] = target: T2, dopamine transporter (DAT) (Rattus norvegicus, UniProt P23977); assay: [3H]Dopamine uptake assay, striatal synaptosomes; type: biochemical
T2 construct: Striata were homogenized in 20 ml of ice-cold sucrose solution; from tissue; host or cells: striatal synaptosomes

α6β2* nicotinic receptor = α6β2* nicotinic receptor (Rattus norvegicus, UniProt P12390+P43143); assay: Nicotine-evoked [3H]DA overflow from superfused striatal slices; type: cell-based
[3] = target: T3, serotonin transporter (SERT) (Rattus norvegicus, UniProt P31652); assay: [3H]5-HT uptake assay, hippocampal synaptosomes; type: biochemical
T3 construct: Rat hippocampus was homogenized in 20 mL cold 0.32 M sucrose; from tissue; host or cells: rat hippocampal synaptosomes

[4] = Table 1, rat striatal membranes, read-out: [3H]Nicotine Binding (Ki) α4β2*
[5] = Table 1, rat whole brain membranes, read-out: [3H]MLA Binding (Ki) α7*
[6] = Table 3, earlier study, read-out: Ki [3H]-Nicotine Binding Assay
[7] = Table 3, earlier study, read-out: Ki [3H]-Dopamine Uptake Assay
[8] = read-out: inhibition of nicotine-evoked [3H]DA overflow IC50
[9] = Table 1, read-out: [3H]5-HT Uptake (Ki) SERT
[10] = Table 1, read-out: [3H]DA Uptake (Ki)

Chain of α4β2* nicotinic receptor (P09483 31-630): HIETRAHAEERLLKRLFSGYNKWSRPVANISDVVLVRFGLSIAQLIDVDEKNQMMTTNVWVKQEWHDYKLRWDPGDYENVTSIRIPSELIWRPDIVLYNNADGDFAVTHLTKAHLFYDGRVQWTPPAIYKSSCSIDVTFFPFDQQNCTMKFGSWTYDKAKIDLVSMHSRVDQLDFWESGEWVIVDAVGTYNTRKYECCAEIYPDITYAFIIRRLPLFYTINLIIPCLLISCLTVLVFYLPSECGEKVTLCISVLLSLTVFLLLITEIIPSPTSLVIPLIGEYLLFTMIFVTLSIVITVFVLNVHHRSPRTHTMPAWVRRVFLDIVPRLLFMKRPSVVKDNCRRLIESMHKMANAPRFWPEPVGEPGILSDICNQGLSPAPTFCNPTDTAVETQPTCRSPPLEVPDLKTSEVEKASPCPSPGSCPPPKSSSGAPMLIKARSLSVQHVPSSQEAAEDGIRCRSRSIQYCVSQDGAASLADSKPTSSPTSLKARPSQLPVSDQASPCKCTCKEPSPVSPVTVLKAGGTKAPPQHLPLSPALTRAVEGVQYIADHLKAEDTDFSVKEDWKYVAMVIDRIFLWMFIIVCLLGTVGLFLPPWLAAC
Chain of α4β2* nicotinic receptor (P12390 25-500): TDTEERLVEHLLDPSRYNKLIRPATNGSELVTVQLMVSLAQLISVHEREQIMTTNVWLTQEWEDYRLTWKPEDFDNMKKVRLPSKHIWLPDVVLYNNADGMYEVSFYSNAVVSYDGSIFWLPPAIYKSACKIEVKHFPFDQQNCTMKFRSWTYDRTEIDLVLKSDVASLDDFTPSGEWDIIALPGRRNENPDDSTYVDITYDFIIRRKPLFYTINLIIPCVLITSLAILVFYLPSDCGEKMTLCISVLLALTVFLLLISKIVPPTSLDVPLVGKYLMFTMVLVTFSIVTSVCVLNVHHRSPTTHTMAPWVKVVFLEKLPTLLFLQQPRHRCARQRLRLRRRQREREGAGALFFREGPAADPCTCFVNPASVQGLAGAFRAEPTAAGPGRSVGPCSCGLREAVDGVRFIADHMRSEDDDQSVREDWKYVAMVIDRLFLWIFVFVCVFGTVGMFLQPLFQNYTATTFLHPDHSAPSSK
T3 sequence (P31652 whole entry): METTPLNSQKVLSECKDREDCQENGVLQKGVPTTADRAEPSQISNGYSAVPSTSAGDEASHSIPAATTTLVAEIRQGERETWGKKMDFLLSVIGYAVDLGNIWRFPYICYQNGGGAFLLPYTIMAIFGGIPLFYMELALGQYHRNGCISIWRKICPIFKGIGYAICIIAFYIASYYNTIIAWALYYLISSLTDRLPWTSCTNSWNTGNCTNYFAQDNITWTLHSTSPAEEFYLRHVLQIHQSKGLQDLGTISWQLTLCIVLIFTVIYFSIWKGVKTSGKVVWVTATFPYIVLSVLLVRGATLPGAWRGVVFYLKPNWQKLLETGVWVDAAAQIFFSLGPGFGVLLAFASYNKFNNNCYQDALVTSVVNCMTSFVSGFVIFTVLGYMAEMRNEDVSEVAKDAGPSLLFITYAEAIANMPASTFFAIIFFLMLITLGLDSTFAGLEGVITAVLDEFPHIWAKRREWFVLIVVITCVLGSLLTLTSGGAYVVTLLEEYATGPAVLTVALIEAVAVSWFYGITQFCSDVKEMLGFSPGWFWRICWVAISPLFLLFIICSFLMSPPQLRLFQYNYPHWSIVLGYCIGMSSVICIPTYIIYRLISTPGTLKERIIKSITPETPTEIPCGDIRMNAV
T1 sequence (Q05941 23-502): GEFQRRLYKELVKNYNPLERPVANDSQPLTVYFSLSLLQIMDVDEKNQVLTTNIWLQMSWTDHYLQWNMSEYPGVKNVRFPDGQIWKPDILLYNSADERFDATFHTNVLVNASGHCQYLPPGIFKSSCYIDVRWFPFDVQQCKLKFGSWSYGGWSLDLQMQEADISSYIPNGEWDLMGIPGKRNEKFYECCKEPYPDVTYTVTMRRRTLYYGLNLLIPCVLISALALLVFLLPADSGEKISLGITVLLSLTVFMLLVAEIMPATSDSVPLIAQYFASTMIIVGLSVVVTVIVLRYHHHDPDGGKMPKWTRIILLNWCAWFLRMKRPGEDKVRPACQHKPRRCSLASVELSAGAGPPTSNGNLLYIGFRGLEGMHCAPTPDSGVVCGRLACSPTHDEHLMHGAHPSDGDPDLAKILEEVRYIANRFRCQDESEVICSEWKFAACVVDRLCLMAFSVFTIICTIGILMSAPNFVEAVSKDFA
Chain of α6β2* nicotinic receptor (P43143 31-493): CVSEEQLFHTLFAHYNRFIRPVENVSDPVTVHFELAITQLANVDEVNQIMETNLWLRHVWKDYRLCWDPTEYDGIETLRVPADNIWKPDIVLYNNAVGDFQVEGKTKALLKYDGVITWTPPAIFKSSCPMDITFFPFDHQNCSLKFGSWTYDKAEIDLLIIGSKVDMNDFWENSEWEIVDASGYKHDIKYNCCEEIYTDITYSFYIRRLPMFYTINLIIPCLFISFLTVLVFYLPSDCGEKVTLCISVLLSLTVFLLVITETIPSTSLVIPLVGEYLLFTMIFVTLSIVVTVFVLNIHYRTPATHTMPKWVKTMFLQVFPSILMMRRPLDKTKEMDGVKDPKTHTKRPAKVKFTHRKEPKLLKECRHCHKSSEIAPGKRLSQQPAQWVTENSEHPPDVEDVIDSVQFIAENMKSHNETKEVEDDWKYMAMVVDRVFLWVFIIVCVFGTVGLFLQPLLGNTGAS
Chain of α6β2* nicotinic receptor (P12390 25-500): as the sequence (P12390 25-500) above
T2 sequence (P23977 whole entry): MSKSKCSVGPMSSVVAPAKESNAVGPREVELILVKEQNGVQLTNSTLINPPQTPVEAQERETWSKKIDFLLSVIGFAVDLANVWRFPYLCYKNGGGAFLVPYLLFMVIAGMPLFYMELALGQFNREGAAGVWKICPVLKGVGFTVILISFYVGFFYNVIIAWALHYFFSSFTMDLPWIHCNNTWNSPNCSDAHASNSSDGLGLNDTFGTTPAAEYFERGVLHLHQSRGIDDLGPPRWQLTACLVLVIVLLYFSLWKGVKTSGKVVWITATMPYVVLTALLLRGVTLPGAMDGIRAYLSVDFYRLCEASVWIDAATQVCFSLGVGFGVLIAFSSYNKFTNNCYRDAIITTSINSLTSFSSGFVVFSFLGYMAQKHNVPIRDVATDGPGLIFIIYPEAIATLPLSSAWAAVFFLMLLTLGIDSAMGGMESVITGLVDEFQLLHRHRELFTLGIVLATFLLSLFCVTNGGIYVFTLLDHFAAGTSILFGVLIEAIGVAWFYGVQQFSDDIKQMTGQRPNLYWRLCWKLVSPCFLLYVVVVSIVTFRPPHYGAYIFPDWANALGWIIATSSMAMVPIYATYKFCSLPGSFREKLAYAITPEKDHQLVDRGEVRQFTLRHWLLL

SMILES | Ki (α4β2* nicotinic receptor; [4]) [µM] | Ki (α7* nicotinic receptor; [5]) [µM] | further results
CCCN1[C@@H](CCc2ccccc2)CCC[C@H]1CCc1ccccc1 [Compound 27, N-(n-propyl)-2,6-cis-diphenethylpiperidine] | > 100 |  | Ki (α7* nicotinic receptor): > 100 µM
CN1[C@@H](/C=C/c2ccccc2)CCC[C@@H]1/C=C/c1ccccc1 [Compound 16, N-methyl-2R,6R-trans-di-trans-styryl piperidine] | 12.3 |  | IC50 ([1]; Rattus norvegicus): 0.43 to 1.25 µM; IC50 ([1]; superfused rat striatal slices): 0.43 µM; melting point: 92 to 93 °C
CN1[C@@H](CCc2cccc(C(F)(F)F)c2)CCC[C@H]1CCc1cccc(C(F)(F)F)c1 [Compound 45, N-methyl-2,6-cis-di-(m-trifluoromethylphenethyl)piperidine] | > 100 | > 100 | 
COc1cccc(CC[C@H]2CCC[C@@H](CCc3cccc(OC)c3)N2)c1 [Compound 38, 2,6-cis-di-(m-methoxyphenethyl)piperidine] | > 100 | > 100 | 
CN1[C@@H](C[C@H](O)c2ccccc2)CCC[C@H]1/C=C/c1ccccc1 (relative stereo) [Compound 7, N-Methyl-2R-(2S-hydroxy-2-phenethyl)-6S-trans-styrylpiperidine] | > 100 | > 100 | Ki (α4β2* nicotinic receptor; [6]): 4.2 µM; loss of affinity for the nicotinic receptor compared to lobeline (α4β2* nicotinic receptor; earlier study (Table 3)): 1000 fold; Ki [2, 7]: 1.3 µM
CN1[C@H](CCc2ccccc2)CCC[C@@H]1CC(O)c1ccccc1 (mixture of isomers) [Compound 60] |  |  | Ki (α4β2* nicotinic receptor; [6]): 0.16 µM; Ki ([2]; Ki [3H]-Dopamine Uptake Assay): 8.9 µM
CN1[C@@H](CCc2ccccc2)CCC[C@H]1C[C@H](O)c1ccccc1 [Compound 12] | 1.21 | 36.4 | 
CN1[C@@H](CCc2ccc(Cl)cc2Cl)CCC[C@H]1CCc1ccc(Cl)cc1Cl [Compound 51, N-methyl-2,6-cis-di-(2,4-dichlorophenethyl)piperidine] | > 100 | > 100 | 
Cc1ccc(CC[C@H]2CCC[C@@H](CCc3ccc(C)cc3)N2C)cc1 [Compound 43, N-methyl-2,6-cis-di-(p-methylphenethyl)piperidine] |  | > 100 | 
c1ccc(CC[C@H]2CCC[C@@H](CCc3ccccc3)N2)cc1 [Compound 25, 2,6-cis-diphenethylpiperidine] | > 100 |  | IC50 (α6β2* nicotinic receptor; Table 1, inhibition of 10 μM S(−)-nicotine, NI: no inhibition, read-out: Inhibition of Nicotine-Evoked [3H]DA Overflow (IC50) α6β2*): 0.1 µM; IC50 (α6β2* nicotinic receptor; [8]): 0.1 to 1 µM; Ki [3, 9]: 2.51 µM; Ki [2, 10]: 1.03 µM; Ki (α7* nicotinic receptor): > 100 µM
CN1[C@@H](CCc2ccccc2F)CCC[C@H]1CCc1ccccc1F [Compound 31, N-methyl-2,6-cis-di-(o-fluorophenethyl)piperidine] | > 100 | > 100 | 
COc1ccc(CC[C@H]2CCC[C@@H](CCc3ccc(OC)cc3)N2C)cc1 [Compound 41, N-methyl-2,6-cis-di-(p-methoxyphenethyl)piperidine] | > 100 | > 100 | 
CN1[C@H](C[C@H](O)c2ccccc2)CCC[C@@H]1/C=C/c1ccccc1 [Compound 8] | 9.8 |  | Ki (α7* nicotinic receptor): > 100 µM
CN1[C@@H](C[C@@H](O)c2ccccc2)CCC[C@H]1/C=C/c1ccccc1 [Compound 6, N-Methyl-2R-(2R-hydroxy-2-phenethyl)-6S-trans-styrylpiperidine] | 7.6 |  | Ki ([3]; [3H]5-HT Uptake (Ki) SERT): 0.04 µM; Ki ([3]; inhibition of serotonin uptake Ki): 0.01 to 0.38 µM; Ki ([2]; read-out: [3H]DA Uptake (Ki)): 0.86 µM; Ki (α7* nicotinic receptor): 1.6 µM; melting point: 104 to 105 °C
Fc1cccc(CC[C@H]2CCC[C@@H](CCc3cccc(F)c3)N2)c1 [Compound 32, 2,6-cis-di-(m-fluorophenethyl)piperidine] |  | > 100 | 
Fc1ccc(CC[C@H]2CCC[C@@H](CCc3ccc(F)cc3)N2)cc1 [Compound 34, 2,6-cis-di-(p-fluorophenethyl)piperidine] | > 100 | > 100 | 
CN1[C@@H](CCc2ccccc2)CCC[C@@H]1CCc1ccccc1 [Compound 19, N-methyl-2R,6R-trans-di-(2-phenethyl)piperidine] |  |  | IC50 ([1]; Rattus norvegicus): > 100 µM
CN1C(CC(=O)c2ccccc2)CCCC1CC(O)c1ccccc1 (stereo not drawn) [Compound 1, 2-[6-(β-hydroxyphenethyl)-1-methyl-2-piperidyl]-acetophenone, reference compound] |  |  | Ki [3, 9]: 25.7 µM; Ki [2, 10]: 29.4 µM; Ki [2, 7]: 45 µM

SMILES | Ki (α4β2* nicotinic receptor; [4]) [µM] | Ki (α7* nicotinic receptor; [5]) [µM] | further results
CN1[C@H](CCc2ccccc2)CCC[C@@H]1C[C@@H](O)c1ccccc1 [Compound 10, N-Methyl-2R-(2R-hydroxy-2-phenethyl)-6S-(2-phenethyl) piperidine] | > 100 | 1.25 | Ki ([3]; Table 1, data of a mixture of compound 10 and 11, read-out: [3H]5-HT Uptake (Ki) SERT): 0.01 µM; Ki ([3]; read-out: inhibition of serotonin uptake Ki): 0.01 to 0.38 µM; Ki ([2]; [3H]DA Uptake (Ki)): 6.62 µM
Clc1ccc(CC[C@H]2CCC[C@@H](CCc3ccc(Cl)cc3Cl)N2)c(Cl)c1 [Compound 50, 2,6-cis-di-(2,4-dichlorophenethyl)piperidine] | > 100 | > 100 | 
CN1[C@@H](C[C@@H](O)c2ccccc2)CCC[C@H]1C[C@H](O)c1ccccc1 [Compound 4, lobelanidine] | 3.1 | 3.29 | Ki [3, 9]: 25.6 µM; Ki (α4β2* nicotinic receptor; [6]): 0.93 µM; Ki [2, 10]: 33.3 µM; inhibition of DAT, potency compared with lobeline ([2]; Table 1 data): equipotently; Ki [2, 7]: 54 µM; inhibition of DAT, potency compared with lobeline ([2]; earlier study (Table 3)): equipotently
FC(F)(F)c1cccc(CC[C@H]2CCC[C@@H](CCc3cccc(C(F)(F)F)c3)N2)c1 [Compound 44, 2,6-cis-di-(m-trifluoromethylphenethyl)piperidine] | > 100 | > 100 | 
CN1[C@H](CCc2ccccc2)CCC[C@@H]1C[C@H](O)c1ccccc1 [Compound 11, N-Methyl-2R-(2S-hydroxy-2-phenethyl)-6S-(2-phenethyl) piperidine] | 32 | > 100 | 
CCN1[C@@H](CCc2ccccc2)CCC[C@H]1CCc1ccccc1 [Compound 26, N-ethyl-2,6-cis-diphenethylpiperidine] | > 100 |  | Ki (α7* nicotinic receptor): > 100 µM
COc1ccccc1CC[C@H]1CCC[C@@H](CCc2ccccc2OC)N1 [Compound 36, 2,6-cis-di-(o-methoxyphenethyl)piperidine] | > 100 | > 100 | 
CN1[C@H](CCc2ccccc2)CCC[C@H]1CCc1ccccc1 [Compound 18, N-methyl-2S,6S-trans-di-(2-phenethyl)piperidine] |  | 24.3 | IC50 (α6β2* nicotinic receptor; [8]): 0.003 µM; Ki ([3]; [3H]5-HT Uptake (Ki) SERT): 2.92 µM; IC50 ([1]; Rattus norvegicus): > 100 µM; Ki ([2]; [3H]DA Uptake (Ki)): 3.69 µM
COc1ccc(CC[C@H]2CCC[C@@H](CCc3ccc(OC)cc3)N2)cc1 [Compound 40, 2,6-cis-di-(p-methoxyphenethyl)piperidine] | > 100 | > 100 | 
CC(=O)OCc1ccc(CC[C@H]2CCC[C@@H](CCc3ccc(COC(C)=O)cc3)N2)cc1 [Compound 49, 2,6-cis-di-(p-acetoxymethylphenethyl)piperidine] | > 100 | > 100 | 
CN1[C@@H](CC(=O)c2ccccc2)CCC[C@H]1CC(=O)c1ccccc1 [Compound 3] | 37.1 | 22.7 | Ki [3, 9]: 3.31 µM; Ki (α4β2* nicotinic receptor; [6]): 11 µM; Ki [2, 10]: 15.8 µM; Ki [2, 7]: 25 µM
c1cc2c(cc1CC[C@H]1CCC[C@@H](CCc3ccc4c(c3)OCO4)N1)OCO2 [Compound 28] | > 100 | > 100 | 
Fc1ccccc1CC[C@H]1CCC[C@@H](CCc2ccccc2F)N1 [Compound 30, 2,6-cis-di-(o-fluorophenethyl)piperidine] | > 100 | > 100 | 
CN1[C@@H](CCc2ccc(F)cc2)CCC[C@H]1CCc1ccc(F)cc1 [Compound 35, N-methyl-2,6-cis-di-(p-fluorophenethyl)piperidine] | > 100 | > 100 | 
OCc1ccc(CC[C@H]2CCC[C@@H](CCc3ccc(CO)cc3)N2)cc1 [Compound 48, 2,6-cis-di-(p-hydroxymethylphenethyl)piperidine] | > 100 | > 100 | 
CN1[C@@H](CCc2ccccc2)CCC[C@H]1CCc1ccccc1 [Compound 17, N-methyl-2,6-cis-di-(2-phenethyl)piperidine] | 77 | 43.1 | Ki ([3]; [3H]5-HT Uptake (Ki) SERT): 1.59 µM; Ki (α4β2* nicotinic receptor; [6]): 14.3 µM; IC50 ([1]; Rattus norvegicus): 0.43 to 1.25 µM; IC50 ([1]; superfused rat striatal slices): 0.44 µM; Ki ([2]; Ki [3H]-Dopamine Uptake Assay): 3 µM; Ki ([2]; [3H]DA Uptake (Ki)): 1.95 µM
CN1[C@@H](CCc2cccc(F)c2)CCC[C@H]1CCc1cccc(F)c1 [Compound 33, N-methyl-2,6-cis-di-(m-fluorophenethyl)piperidine] | > 100 | > 100 | 
Cc1ccc(CC[C@H]2CCC[C@@H](CCc3ccc(C)cc3)N2)cc1 [Compound 42, 2,6-cis-di-(p-methylphenethyl)piperidine] | > 100 | > 100 | 
